Drawing on patent US20160362416A1, “ANTIVIRAL COMPOUNDS” (Gilead Sciences, Inc., priority 2012, published 2016), this text covers EC50 for eight compounds.

Type in all cases: cell-based
The test system of assay [1] is stable HCV 1b RLuc replicon cells (genotype 1b Con1 replicon). The experiment in a line: HCV genotype 1b RLuc replicon reporter assay. As to conditions: Hepatitis C virus; stable genotype 1b Con1 RLuc replicon cells, 72 hours. As to the method:
(§1) Evaluation of cell-based anti-HCV activity: Antiviral potency (EC50) was determined using a Renilla luciferase (RLuc)-based HCV replicon reporter assay. To perform the assay for genotype 1 and 2a JFH-1, stable HCV 1a RLuc replicon cells (harboring a dicistronic genotype 1a H77 replicon that encodes a RLuc reporter), stable HCV lb RLuc replicon cells (harboring a dicistronic genotype 1b Conl replicon that encodes a RLuc reporter), or stable HCV 2a JFH-1 Rluc replicon cells (harboring a dicistronic genotype 2a JFH-1 replicon that encodes a RLuc reporter; with L31 present in NS5A) were dispensed into 384-well plates for EC50 assays. To perform the assay for genotype 2a (with M31 present in NS5A) or 2b, NS5A chimeric genotype 2a JFH-1 replicons that encodes a RLuc-Neo reporter and either genotype 2a J6 strain NS5A gene or genotype 2b MD2b-1 strain NS5A gene (both with M31 present) respectively, were either transiently transfected (t) into Huh-Lunet cells or were established as stably replicating replicon cells (s) is provided. Either cells were dispensed into 384-well plates for EC50 assays. To perform the assay for genotype 3 and 4, NS5A chimeric genotype 1b Conl replicons that encodes a Pi-RLuc reporter and either genotype 3a S52 strain NS5A gene or genotype 4a ED43 strain NS5A gene respectively, were transiently transfected (t) into Huh-Lunet cells, which were subsequently dispensed into 384-well plates. Compounds were dissolved in DMSO at a concentration of 10 mM and diluted in DMSO either manually or using an automated pipeting instrument. Serially 3-fold diluted compounds were either manually mixed with cell culture media and added to the seeded cells or directly added to the cells using an automated instrument. DMSO was used as a negative (solvent; no inhibition) control, and the protease inhibitor ITMN-191 was included at a concentration >100×EC50 as a positive control. 72 hours later, cells were lysed and Renilla luciferase activity quantified as recommended by the manufacturer (Promega-Madison, Wis.). Non-linear regression was performed to calculate EC50 values.
(In general: A replicon is a self-replicating genome or part of one, used to study replication in cells.)

The subject of assay [2] is stable HCV 1a RLuc replicon cells (genotype 1a H77 replicon). Briefly: HCV genotype 1a RLuc replicon reporter assay. As to conditions: Hepatitis C virus; stable genotype 1a H77 RLuc replicon cells, 72 hours. As for the experimental part:
as §1

For assay [3], the system named is NS5A chimeric genotype 2a JFH-1 replicon with genotype 2a J6 strain NS5A gene (M31). Briefly: HCV genotype 2a J6 NS5A chimeric replicon assay, transient (t). The settings on record: Hepatitis C virus, 72 h, read-out: 2a J6 (t) (nM). As to the method: as §1
Assay [4] relates to NS5A chimeric genotype 2a JFH-1 replicon with genotype 2b MD2b-1 strain NS5A gene (M31). Briefly: HCV genotype 2b NS5A chimeric replicon assay, stable (s). The settings on record: Hepatitis C virus, 72 h, read-out: 2b (s) (nM). As for the experimental part: as §1
Assay [5] deals with stable HCV 2a JFH-1 Rluc replicon cells (L31 present in NS5A). The experiment in a line: HCV genotype 2a JFH-1 RLuc replicon reporter assay. As to conditions: Hepatitis C virus, 72 h, read-out: 2a JFH (nM). As for the experimental part: as §1
Assay [6] has as its system NS5A chimeric genotype 1b Con1 replicon with genotype 4a ED43 strain NS5A gene. The experiment in a line: HCV genotype 4a NS5A chimeric replicon assay. As to conditions: Hepatitis C virus, 72 h, read-out: 4a (s) (nM). As for the experimental part:
as §1, with “[…],” for “were transiently transfected (t) into Huh-Lunet cells,”

Assay [7] has as its system NS5A chimeric genotype 1b Con1 replicon with genotype 3a S52 strain NS5A gene. Briefly: HCV genotype 3a NS5A chimeric replicon assay. As to conditions: Hepatitis C virus, 72 h, read-out: 3a (nM). As for the experimental part: as §1

`COC[C@H]1C[C@@H](c2ncc(-c3ccc4c(c3)COc3cc5c(ccc6nc([C@@H]7CC[C@H](C)N7C(=O)[C@@H](NC(=O)OC)C(C)C)[nH]c65)cc3-4)[nH]2)N(C(=O)[C@@H](NC(=O)OC)C2CCOCC2)C1` [Comp 2, reference compound]: the EC50 in assay [1] was found to be 0.064 nM; in assay [2], 0.055 nM; in assay [3], 0.083 nM.

As for `COC(=O)N[C@H](C(=O)N1CCC[C@H]1c1ncc(-c2ccc3c(c2)COc2cc4c(ccc5nc([C@@H]6CCCN6C(=O)[C@@H](NC(=O)OC)C6CCOCC6)[nH]c54)cc2-3)[nH]1)C1CCOCC1` [Comp 11, reference compound], the EC50 in assay [1] worked out at 0.416 nM; in assay [4], 0.203 nM; in assay [2], 0.203 nM.

For `COC(=O)N[C@H](C(=O)N1[C@@H](C)CC[C@H]1c1ncc(-c2ccc3c(c2)COc2cc4c(ccc5nc([C@@H]6CC[C@H](C)N6C(=O)[C@@H](NC(=O)OC)C6(C)CCOCC6)[nH]c54)cc2-3)[nH]1)C(C)C` [Example AD, Methyl [(2S)-1-{(2S,5S)-2-[5-(2-{(2S,5S)-1-[(2S)-2-[(methoxycarbonyl)amino]-2-(4-methyltetrahydro-2H-pyran-4-yl)acetyl]-5-methylpyrrolidin-2-yl}-1,11-dihydroisochromeno[4′,3′:6,7]naphtho[1,2-d]imidazol-9-yl)-1H-imidazol-2-yl]-5-methylpyrrolidin-1-yl}-3-methyl-1-oxobutan-2-yl]carbamate], the EC50 was 0.031 nM in assay [1]; 0.351 nM in assay [4]; 0.027 nM in assay [5]; 0.018 nM in assay [6]; 0.074 nM in assay [7]; 0.021 nM in assay [2]. Besides, the EC50 in assay [3] is 1.02 nM.

For `CC[C@H]1CC[C@@H](c2nc3ccc4cc5c(cc4c3[nH]2)OCc2cc(-c3cnc([C@@H]4CC[C@H](C)N4C(=O)[C@@H](NC(=O)OC)C(C)C)[nH]3)ccc2-5)N1C(=O)[C@@H](NC(=O)OC)[C@@H]1CCCOC1` [Example AH, Methyl{(1S)-2-[(2S,5S)-2-ethyl-5-(9-{2-[(2S,5S)-1-{(2S)-2-[(methoxycarbonyl)amino]-3-methylbutanoyl}-5-methylpyrrolidin-2-yl]-1H-imidazol-5-yl}-1,11-dihydroisochromeno[4′,3′:6,7]naphtho[1,2-d]imidazol-2-yl)pyrrolidin-1-yl]-2-oxo-1-[(3S)-tetrahydro-2H-pyran-3-yl]ethyl}carbamate], the EC50 in assay [1] was 0.021 nM; in assay [4], 0.104 nM; in assay [5] it was 0.031 nM; in assay [6], 0.017 nM; in assay [7], 0.154 nM; in assay [2], 0.026 nM. In addition, the EC50 in assay [3] came out at 0.172 nM.

Take `COC(=O)N[C@H](C(=O)N1[C@@H](C)CC[C@H]1c1nc2ccc3cc4c(cc3c2[nH]1)OCc1cc(-c2cnc([C@@H]3CC[C@H](C)N3C(=O)[C@@H](NC(=O)OC)C3(C)CCOCC3)[nH]2)ccc1-4)C(C)C` [Example AL, Methyl [(2S)-1-{(2S,5S)-2-[9-(2-{(2S,5S)-1-[(2S)-2-[(methoxycarbonyl)amino]-2-(4-methyltetrahydro-2H-pyran-4-yl)acetyl]-5-methylpyrrolidin-2-yl}-1H-imidazol-5-yl)-1,11-dihydroisochromeno[4′,3′:6,7]naphtho[1,2-d]imidazol-2-yl]-5-methylpyrrolidin-1-yl}-3-methyl-1-oxobutan-2-yl]carbamate]: the EC50 in assay [1] was 0.03 nM; in assay [4], 0.713 nM; in assay [5] it was 0.026 nM; in assay [6], 0.028 nM; in assay [7] it was 0.086 nM; in assay [2] it was 0.02 nM. The EC50 in assay [3] is 0.776 nM.

With `COC(=O)N[C@H](C(=O)N1[C@@H](C)CC[C@H]1c1ncc(-c2ccc3c(c2)COc2cc4c(ccc5nc([C@@H]6CC[C@H](C)N6C(=O)[C@H](NC(=O)OC)[C@H]6C[C@@H](C)O[C@@H](C)C6)[nH]c54)cc2-3)[nH]1)C(C)C` [Example AN, Methyl {(2S)-1-[(2S,5S)-2-(5-{2-[(2S,5S)-1-{(2R)-2-[(2R,6S)-2,6-dimethyltetrahydro-2H-pyran-4-yl]-2-[(methoxycarbonyl)amino]acetyl}-5-methylpyrrolidin-2-yl]-1,11-dihydroisochromeno[4′,3′:6,7]naphtho[1,2-d]imidazol-9-yl}-1H-imidazol-2-yl)-5-methylpyrrolidin-1-yl]-3-methyl-1-oxobutan-2-yl}carbamate], the EC50 in assay [1] came out at 0.049 nM; in assay [4] it was 4.44 nM; in assay [5] it was 0.852 nM; in assay [6] it was 0.935 nM; in assay [7] it was 4.44 nM; in assay [2] it was 4.44 nM. The EC50 in assay [3] came to 4.44 nM.

Turning to `COC(=O)N[C@H](C(=O)N1[C@@H](c2ncc(-c3ccc4c(c3)COc3cc5c(ccc6nc([C@H]7C[C@@H](C)[C@@H](C)N7C(=O)[C@@H](NC(=O)OC)C7C[C@@H](C)O[C@H](C)C7)[nH]c65)cc3-4)[nH]2)C[C@@H](C)[C@H]1C)C1C[C@@H](C)O[C@H](C)C1` (stereo partly drawn) [Example BC, Methyl {(1S)-1-[(2R,6R)-2,6-dimethyltetrahydro-2H-pyran-4-yl]-2-[(2R,3R,5R)-5-(5-{2-[(2R,4R,5R)-1-{(2S)-2-[(2R,6R)-2,6-dimethyltetrahydro-2H-pyran-4-yl]-2-[(methoxycarbonyl)amino]acetyl}-4,5-dimethylpyrrolidin-2-yl]-1,11-dihydroisochromeno[4′,3′:6,7]naphtho[1,2-d]imidazol-9-yl}-1H-imidazol-2-yl)-2,3-dimethylpyrrolidin-1-yl]-2-oxoethyl}carbamate], the EC50 amounted to 2.47 nM in assay [1]; 23.1 nM in assay [4]; 8.04 nM in assay [5]; 6.24 nM in assay [6]; 23.3 nM in assay [7]; 10.1 nM in assay [2].

For `CCOC(=O)N[C@H](C(=O)N1[C@@H](C)CC[C@H]1c1ncc(-c2ccc3c(c2)COc2cc4c(ccc5nc([C@@H]6CC[C@H](C)N6C(=O)[C@@H](NC(=O)OCC)C6C[C@@H](C)O[C@H](C)C6)[nH]c54)cc2-3)[nH]1)C1C[C@@H](C)O[C@H](C)C1` (stereo partly drawn) [Example BM, Ethyl {(1S)-1-[(2R,6R)-2,6-dimethyltetrahydro-2H-pyran-4-yl]-2-[(2S,5S)-2-(5-{2-[(2S,5S)-1-{(2S)-2-[(2R,6R)-2,6-dimethyltetrahydro-2H-pyran-4-yl]-2-[(ethoxycarbonyl)amino]acetyl}-5-methylpyrrolidin-2-yl]-1,11-dihydroisochromeno[4′,3′:6,7]naphtho[1,2-d]imidazol-9-yl}-1H-imidazol-2-yl)-5-methylpyrrolidin-1-yl]-2-oxoethyl}carbamate], the EC50 in assay [1] was determined as 0.053 nM; in assay [5] it was 0.023 nM; in assay [6], 0.039 nM; in assay [7], 0.143 nM; in assay [2] it was 0.034 nM.
